Test results from patent US6528510B1, “HIV protease inhibitors” (Warner-Lambert Company, priority 1998, dated 2003).
Like-named read-outs stand apart in the source and are kept apart here.

How the values were obtained:
[1] = system: HIV infected lymphocyte derived CEM cells; assay: Cellular infection assay in CEM cells, XTT cytopathic procedure (EC50); conditions: for TI (therapeutic index, TC50/EC50): CEM cells; for EC50: read-out: Antiviral Efficacy EC50
Description: (§1) Compound concentrations were 0.32, 1, 3.2, 10, 32, and 100 uM.

uninfected CEM cells = assay: Cellular toxicity in uninfected CEM cells, XTT (TC50)
Description: as §1

[2] = target: T1, Recombinant HIV-1 protease (Human immunodeficiency virus type 1 group M subtype B, UniProt P04585); assay: HIV protease assay (Ki determination, HPLC readout of substrate III cleavage); assay type: biochemical
T1 construct: Recombinant HIV-1 protease (>96% purity); purchased Bachem Bioscience, Inc. (King of Prussia, Pa.)
Description: Recombinant HIV-1 protease (>96% purity) and HIV protease substrate III (the undecapeptide H-His-Lys-Ala-Arg-Val-Leu-Nph-Glu-Ala-Nle-Ser-NH2, 97% purity) were purchased from Bachem Bioscience, Inc. (King of Prussia, Pa.).
The methods employed follow the procedures of Tummino, et al., Archives of Biochemistry and Biophysics, 1995;316:523). […] (total volume, […]). […] The final inhibitor concentrations used were 0 (0.1, 0.2, in some experiments), 0.5, 1, 2, 5, 10, 20, 50, and 100 μM. The solution was mixed, incubated for 5 minutes and the reaction quenched by addition of trifluoracetic acid, 2% final. The (leu-p-nitro-phe) bond of the substrate is cleaved by the enzyme and substrate arid products separated by reverse-phase HPLC. Absorbance was measured at 220 nm, peak areas determined, and percentage conversion to product used to calculate percentage control (=[% conversion (+inhibitor)/% conversion (−inhibitor)]×100).

[3] = Cellular toxicity in uninfected CEM cells, XTT (TC50); conditions: human, uninfected CEM cells (lymphocyte derived)
Description: as §1

[4] = Mouse blood levels after oral dosing; assay type: in vivo, Charles River CD-1 mice; conditions: CD-1, mouse, plasma, mice, oral dose of 25 mg/kg; for Cmax: read-out: Cmax (maximum concentration reached within the plasma); for half-life: read-out: T 1/2 (half life) (converted)
Description: Charles River CD-1 mice were dosed with a 25 mg/kg drug solution orally by gavage. For oral dosing the compounds were dissolved in 0.1N NaOH (20% final volume) and then 0.5% methylcellulose (80% final volume) was added. Blood was drawn and pooled from 5 mice at each time point via heart puncture and was placed in a 15 mL centrifuge tube containing heparin. The plasma stored in 200 μL aliquots at −80° C. until assayed.
Plasma was thawed at room temperature and then 400 μL of acetonitrile was added to each vial and vortexed. Following centrifugation the supernatant was removed and evaporated in a nitrogen evaporator at 48° C. Residue was then resolublized in 200 μL of a 75% water/25% CH3CN solution for HPLC analysis. HPLC analysis used a Zorbax RX-C8 column (4.6×150 mm) with a 25 mM potassium phosphate buffer with 0.1% TFA, pH 3.0. Mobile phases consisted of varying percentages of two buffer mixtures: Buffer A—90% buffer, 10% CH3CN, and Buffer B—30% buffer, 70% CH3CN.
A standard curve ranging from 0.5 to 50 μg/mL was used for each drug tested. Ten times final concentration solutions of drug in water were prepared from stock solutions of 1 mg/mL drug in DMSO. The final 1:10 dilution was then done in mouse plasma obtained from mice described above.

[5] = Rat blood levels after oral dosing; assay type: in vivo; conditions: male, plasma, rats, oral dose of 10 mg/kg; for Cmax: read-out: Cmax (maximum concentration reached within the plasma); for half-life: read-out: T 1/2 (half life) (converted)
Description: (§2) The procedure for pharmacokinetics analysis in dogs and rats was similar. For dog studies, two dogs received a single oral 10 mg/kg dose of the HIV protease inhibitor as a solution. The protease inhibitor was dissolve in 0.1N NaOH followed by buffering or diluting with isotonic phosphate buffer or water depending on solubility. For rat studies. two male rats received a single oral 10 mg/kg gavage dose of the HIV protease inhibitor suspended in 0.5% methylcellulose. For the IV administration, the compounds were dissolved in 0.1N sodium hydroxide at a concentration of 10 mg/ml. The IV dose was given bolus. Blood samples were collected prior to dosing and at 0.25, 0.5, 1, 1.5, 2, 3, 4, 8, 12, and 24 hours postdose. Plasma samples were analyzed for the HIV protease inhibitor using a HPLC procedure. The method involved plasma protein precipitation with acetonitrile, reverse-phase chromatographic separation of the HIV protease inhibitor and internal standard, and quantitation by UV detection. Some plasma samples were concentrated by evaporation prior to injection. Pharmacokinetic parameters were determined by noncompartmental analysis of individual rat-plasma concentration-time curves using WinNonlin. Maximum concentration (Cmax) and time for these to occur (tmax) were recorded as observed. Area under concentration-time curve (AUC) values were obtained using the linear trapezoidal rule.

[6] = Dog blood levels after oral dosing; assay type: in vivo; conditions: plasma, dogs, oral dose of 10 mg/kg; for half-life: read-out: T 1/2 (half life) (converted)
Description: as §2

[7] = Rat blood levels after IV dosing; assay type: in vivo; conditions: plasma, rats, IV dose of 10 mg/kg; for half-life: read-out: T 1/2 (half life) (converted)
Description: as §2

[8] = system: HIV infected lymphocyte derived CEM cells; conditions: as disclosed by Hagen et al., J. Med. Chem. 1997; cited from earlier work
[9] = as disclosed by Vander Roest et al., ICAAC 1997, relative to related polar substituted derivatives; cited from earlier work
[10] = recombinant HIV-1 protease, read-out: Inhib of HIV Protease KI
[11] = read-out: Antiviral Efficacy TC50, uninfected CEM cells
[12] = Human immunodeficiency virus 1, CCRF-CEM

| Compound | TI (therapeutic index, TC50/EC50) [1] | EC50 ([1]; HIV infected CEM cells) | CC50 (uninfected CEM cells) | Ki [2, 10] | CC50 (uninfected CEM cells; [11]) | EC50 [1, 12] | CC50 [3] | Cmax [4] | half-life [4] | Cmax [5] | half-life [5] | Cmax [6] | half-life [6] | C0 [7] | half-life [7] | Ki [2] | antiviral activity [8] | pharmacokinetics in mice [9] |
| --- | --- | --- | --- | --- | --- | --- | --- | --- | --- | --- | --- | --- | --- | --- | --- | --- | --- | --- |
| 3-(2-Amino-5-isopropyl-benzothiazol-6-yl-sulfanyl)-6-[2-(4-fluoro-phenyl)-ethyl]-phenethyl-4-hydroxy-6-isopropyl-5,6-dihydro-pyran-2-one [Example 16] | 10.4 | 11000 nM | 114000 nM | – | – | – | – | – | – | – | – | – | – | – | – | – | – | – |
| 3-(4-Amino-2-tert-butyl-5-methyl-phenylsulfanyl)-6-(2-furan-3-yl-ethyl)-4-hydroxy-6-isopropyl-5,6-dihydro-pyran-2-one [Example 36] | 77 | 2200 nM | – | 1.7 nM | 170000 nM | – | – | – | – | – | – | – | – | – | – | – | – | – |
| Cc1cc(SC2=C(O)C[C@@](CCc3ccsc3)(C(C)C)OC2=O)c(C(C)(C)C)cc1CO [Example 12, (S)-3-(2-tert-Butyl-4-hydroxymethyl-5-methyl-phenylsulfanyl)-4-hydroxy-6-isopropyl-6-(2-thiophen-3-yl-ethyl)-5,6-dihydro-pyran-2-one] | 650 | – | – | 0.07 nM | – | 140 nM | 91000 nM | 95 µM | 9.5 h | 30 µM | 11.5 h | 149 µM | 1.75 h | 160 µM | 12 h | – | – | – |
| Cc1cc(SC2=C(O)CC(CCc3cc[nH]n3)(C(C)C)OC2=O)c(C(C)(C)C)cc1N (stereo not shown) [Example 41] | 10 | 20000 nM | – | 6.5 nM | 195000 nM | – | – | – | – | – | – | – | – | – | – | – | – | – |
| Cc1cc(SC2=C(O)CC(CCc3ccc(N)cc3)(C(C)C)OC2=O)c(C(C)(C)C)cc1CO (stereo not shown) [Reference Agent 1, reference compound] | >200 | – | – | – | – | 500 nM | > 100000 nM | 23 µM | 2.2 h | 16 µM | 3.4 h | 140 µM | 1.25 h | 86 µM | 3.7 h | 0.43 nM | particularly good antiviral activity | comparatively good pharmacokinetics in mice |
| Cc1cc(SC2=C(O)CC(CCc3ccc(O)cc3)(C(C)C)OC2=O)c(C(C)(C)C)cc1CO (stereo not shown) [Reference Agent 2, reference compound] | >166 | – | – | 0.22 nM | – | 600 nM | > 100000 nM | 17 µM | 2 h | 3.4 µM | 0.55 h | 40 µM | 0.52 h | 100 µM | 3.9 h | – | particularly good antiviral activity | comparatively good pharmacokinetics in mice |
| (S)-N-[6-tert-Butyl-5-(4-hydroxy-6-isopropyl-2-oxo-6-[2-(4-hydroxy-phenyl)ethyl]-5,6-dihydro-2H-pyran-3-ylsulfanyl)-indolin-1yl]-(4-cyanophenyl)sulfonamide [Example 70] | 6 | 1300 nM | – | 0.82 nM | 8000 nM | – | – | – | – | – | – | – | – | – | – | – | – | – |
